Assay results from paper doi:10.1101/2025.07.15.665002v1 (biorxiv, 2025).
Positions count from the first letter of the chain named. Where two headings read alike, the source gives them in different places.

How the values were obtained:
hMDH2 [1] = molecular target: T1, hMDH2 (Homo sapiens, UniProt P40926); experiment: NADH oxidation at […] nm; type: biochemical; conditions: read-out: % of control activity remaining at 10.0 mM
T1 sequence (P40926 25-338): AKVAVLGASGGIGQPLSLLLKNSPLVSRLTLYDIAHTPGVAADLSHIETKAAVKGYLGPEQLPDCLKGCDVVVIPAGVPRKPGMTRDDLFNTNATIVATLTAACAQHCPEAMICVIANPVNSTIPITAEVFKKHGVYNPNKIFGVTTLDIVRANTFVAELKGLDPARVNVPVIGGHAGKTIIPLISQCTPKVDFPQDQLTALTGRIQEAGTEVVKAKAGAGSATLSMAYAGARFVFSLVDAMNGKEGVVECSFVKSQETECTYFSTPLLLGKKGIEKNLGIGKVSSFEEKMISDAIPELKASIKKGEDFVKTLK

hMDH2 [2] = molecular target: T2, hMDH2 (Homo sapiens, UniProt P40926, H131W); type: binding
T2 sequence (P40926 25-338 H131W): T1 sequence (P40926 25-338) with H107W

hMDH2 [3] = molecular target: T1, hMDH2; experiment: NADH oxidation at […] nm; type: biochemical; conditions: read-out: % inhibition at 10.0 mM
hMDH2 [4] = molecular target: T2, hMDH2; type: binding; remark: listed apart in the source

Row | Compound | remaining activity at 10000 µM (hMDH2 [1]) [%] | Kd (hMDH2 [2]) [mM] | inhibition at 10000 µM (hMDH2 [3]) [%] | Kd (hMDH2 [4]) [mM]
1 | O=C(O)CC(O)(CC(=O)O)C(=O)O [citrate] | 31 | – | – | –
2 | Nc1ncnc2c1ncn2[C@@H]1O[C@H](COP(=O)(O)OP(=O)(O)O)[C@@H](O)[C@H]1O [ADP] | 18.7 | 3.77 ± 0.27 | – | –
3 | Nc1ncnc2c1ncn2[C@@H]1O[C@H](COP(=O)(O)OP(=O)(O)OP(=O)(O)O)[C@@H](O)[C@H]1O [ATP] | 29.1 | 9.63 ± 0.68 | – | –
4 | NC(=O)c1ccc[n+]([C@@H]2O[C@H](COP(=O)(O)OP(=O)(O)OC[C@H]3O[C@@H](n4cnc5c(N)ncnc54)[C@H](O)[C@@H]3O)[C@@H](O)[C@H]2O)c1 [NAD^+] | 13.2 | 1.02 ± 0.039 | – | –
5 | O=C(O)CCC(=O)C(=O)O [α-ketoglutarate] | – | – | 51.7 | 10.4 ± 1.45
